Where two headings read alike, the source gives them in different places.

Consider 21 molecules from patent publication US10435400B2, “2,4-disubstituted phenylene-1,5-diamine derivatives and applications thereof, and pharmaceutical compositions and pharmaceutically acceptable compositions prepared therefrom” (SHANGHAI HAIYAN PHARMACEUTICAL TECHNOLOGY CO., LTD., priority 2014, dated 2019).

Experiment [1] relates to NIH3T3 cells. Put plainly: Cytotoxicity by MTT method, NIH3T3 cells.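 Note: cells grown in 96-well plates with compound for 72 h, then given MTT for a further 4 h at 37 °C under 5% CO2.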 Format: cell-based. Particulars: cytotoxicity, MTT, 72 h, read-out: NIH3T3 cells MTT assay (IC50/nM). On the technique in general: Tetrazolium dyes change colour on reduction, which living cells bring about.
The subject of experiment [2] is A431 cells. Put plainly: ELISA cell activity, EGF-stimulated A431 cells.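 Note: Serum-starved A431 cells pretreated with compound for 1 h, then stimulated with EGF for 45 min, lysates read by ELISA (OD450 minus OD570), EGF-only wells as control.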 Type of experiment: cell-based. Particulars: ELISA, compound 1 h then EGF 45 minutes, read-out: A431 cells (IC50/nM).
Description: (§1) The reagents, preparation methods of the solution, as well as the procedures of cell treatments and preparation of lysate, and the test steps of ELISA in the following method were conducted according to the instructions of R&D DYC3570, R&D DYC1095E and R&D DYC1095BE.
(§2) Cell lysates: cell lysis buffer+10 μg/ml Aprotinin (Sigma), 10 μg/ml Leupeptin (Sigma). All reagents were prepared when using.
(2) The medium of A431 cells was changed to 90 ul of DMEM FBS free medium, and incubated overnight.
(3) The test compounds were diluted according to the method in MTT assay, 10 μl of diluted compound or DMSO was added to the corresponding plate well, and incubated at 37° C. with 5% CO2 for 1 h. The final concentration of DMSO was 0.5%. 10 μl of 2 μg/L EGF was then added to each well except the cell control well, 10 μl of FBS free DMEM was added to the well, and incubated for 45 minutes; the EGF-free and compound treatment-free cells were used as cell control, and the compound treatment-free but only EGF-treated cells were used as EGF control.
(4) 100 μl cell lysate was added after aspirating the medium, sealed and placed in refrigerator at −80° C. overnight.
The assay was operated according to the instructions of R&D DYC3570E.
(§3) (5) 40 μl of cell lysis buffer and 60 μl of cell lysates were added, and incubated at 25° C. for 2 h under shaking;
(7) Detection antibody was diluted according to a predetermined ratio of kit instruction by using IC dilution, and 100 μl of the diluted Detection Antibody was added to each well, and incubated at 25° C. for 1 h under shaking in darkness;
(9) reagent A and reagent B of TMB substrate (R & D DY999) were mixed at 1:1, 100 μl of substrate was added to each well, and incubated at 25° C. for 20 minutes under shaking in darkness;
(11) The OD450 values and OD570 values of the cell control, blank control and compound treatment were measured respectively by using microplate reader (Thermo Multiskan K3), and the corresponding OD570 values were subtracted from OD450 values of the same wells to get the ODEGF, ODcompound and ODcell respectively.
The target in experiment [3] is EGFR WT kinase (Homo sapiens (Human), UniProt P00533). Put plainly: Wild type EGFR kinase inhibition test (z-lyte). Type of experiment: biochemical. The note with it: 10 μM ATP.
Experiment [4] has as its system H1975 cells. Put plainly: ELISA screening EGFR T790M inhibitor for cell activity, H1975 cells. Format: cell-based. The note with it: ELISA; for IC50: compound 1 h, read-out: H1975 cells (IC50/nM); for Selective inhibitory activities of target on cellular level [IC50 (A431 cells)/IC50 (H1975 cells)]: ratio of IC50 values.
Description: as §1, §2
(2) The test compounds were diluted according to the method in MTT assay, and 10 μl of diluted compound or DMSO was added to the corresponding plate well, and incubated at 37° C. with 5% CO2 for 1 h. The final concentration of DMSO was 0.5%. Cell culture system merely treated with DMSO was used as cell control.
(3) 100 μl cell lysate was added after aspirating the medium, sealed and placed in a refrigerator at −80° C. overnight. Cell lysis buffer used as blank control.
The assay was operated according to the instructions of R&D DYC1095E or R&D DYC1095BE.
as §3
(7) Detection antibody was diluted according to a predetermined ratio as stipulated in kit instructions by using IC diluent, and 100 μl of the diluted Detection Antibody was added to each well, and incubated at 25° C. for 1 h under shaking in darkness;
(9) reagent A and reagent B of TMB substrate (R & D DY999) were mixed with 1:1, and 100 μl of substrate was added to each well, and incubated at 25° C. for 20 minutes under shaking in darkness;
(11) The OD450 values and OD570 values of the cell control, blank control and compound treatment were measured respectively by using microplate reader (Thermo Multiskan K3), and the corresponding OD570 values were subtracted from OD450 values of the same wells to get the ODcell, ODblank and ODcompound treatment respectively.
2.3 Data Analysis Inhibition ratio (%)=100%×(ODcell−ODcompound treatment)(ODcell−ODblank)
For experiment [5], the system named is H1975 cells. Put plainly: Cytostatic activity by MTT method, H1975 cells. Type of experiment: cell-based. Particulars: MTT; for IC50: 72 h, read-out: H1975 cells (IC50/nM); for selective inhibitory activity against the cell growth [IC50 (A431 cells)/IC50 (H1975 cells)]: ratio of IC50 values.
Experiment [6] concerns A431 cells. Put plainly: Cytostatic activity by MTT method, A431 cells.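 Note: viability read by MTT reduction after compound exposure, with MTT incubated for a further 4 h at 37 °C under 5% CO2 in 96-well plates.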 Particulars: read-out: A431 cells (IC50/nM).
Description: After rinsed for one time, 1.5 ml trypsin/EDTA was added to digest the adherent cells until the cells detached, and then 3.5 ml of medium was added to terminate the trypsinization. The digested cell suspension was transferred to a 15 ml falcon tube, and spun at 1300 rpm for 3 min, the supernatant was discarded, and cells were suspended in fresh medium.
The cells were added into the incubator after addition of the test compound, and incubated for 72 h, 10 μl of 5 mg/ml MTT (Sigma, M5655) solution was added to each well of the plate, and incubated the 96-well plates at 37° C. 5% CO2 for 4 h in a incubator.
The plates were spun at 2000 rpm for 5 min.

Chain of EGFR WT kinase (P00533 25-1210): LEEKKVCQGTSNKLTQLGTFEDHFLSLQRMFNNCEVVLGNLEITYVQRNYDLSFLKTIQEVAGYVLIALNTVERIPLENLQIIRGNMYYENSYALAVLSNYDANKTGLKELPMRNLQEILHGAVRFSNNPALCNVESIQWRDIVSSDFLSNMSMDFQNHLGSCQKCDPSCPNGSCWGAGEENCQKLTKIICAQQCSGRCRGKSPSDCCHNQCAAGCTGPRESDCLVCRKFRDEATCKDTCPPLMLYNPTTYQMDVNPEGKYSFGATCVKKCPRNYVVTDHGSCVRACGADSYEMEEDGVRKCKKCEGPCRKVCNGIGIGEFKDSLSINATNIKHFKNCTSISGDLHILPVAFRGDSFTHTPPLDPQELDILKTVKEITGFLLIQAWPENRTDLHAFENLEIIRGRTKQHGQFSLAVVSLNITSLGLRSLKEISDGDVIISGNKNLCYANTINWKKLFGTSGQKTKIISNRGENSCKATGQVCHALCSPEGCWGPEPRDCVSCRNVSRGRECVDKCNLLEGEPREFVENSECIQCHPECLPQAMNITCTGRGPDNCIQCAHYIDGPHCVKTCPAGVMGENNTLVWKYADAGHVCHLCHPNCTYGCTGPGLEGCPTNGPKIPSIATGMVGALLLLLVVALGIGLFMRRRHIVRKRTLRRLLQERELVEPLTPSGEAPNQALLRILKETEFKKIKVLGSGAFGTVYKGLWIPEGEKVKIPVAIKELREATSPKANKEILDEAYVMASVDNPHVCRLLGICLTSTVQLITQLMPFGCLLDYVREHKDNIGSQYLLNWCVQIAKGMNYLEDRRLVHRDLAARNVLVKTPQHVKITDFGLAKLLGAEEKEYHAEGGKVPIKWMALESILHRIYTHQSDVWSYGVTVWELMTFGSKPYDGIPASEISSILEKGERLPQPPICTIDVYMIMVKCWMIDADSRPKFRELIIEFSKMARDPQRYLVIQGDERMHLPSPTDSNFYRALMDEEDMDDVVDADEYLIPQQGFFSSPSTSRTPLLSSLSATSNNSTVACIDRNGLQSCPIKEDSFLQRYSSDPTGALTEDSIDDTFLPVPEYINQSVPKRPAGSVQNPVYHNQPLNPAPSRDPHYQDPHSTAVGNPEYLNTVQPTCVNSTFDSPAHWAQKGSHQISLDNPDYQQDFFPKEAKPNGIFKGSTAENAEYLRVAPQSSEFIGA

Consider `C=CC(=O)Nc1cc(Nc2ncc(Cl)c(-c3cnc4c(ccn4C)c3)n2)c(OC)cc1N(C)CCN(C)C` [Compound Z-1, N-(5-(5-chloro-4-(1-methyl-1H-pyrrolo[2,3-b]pyridin-5-yl)pyrimidin-2-amino)-2-((2-(dimethylamino)ethyl)methylamino)-4-methoxyphenyl)acrylamide], for which the IC50 turned out to be 6590 nM in experiment [1], 471 nM in experiment [2], 25 nM in experiment [3] and 30 nM in experiment [4]. For the same molecule, the “Selective inhibitory activities of target on cellular level [IC50 (A431 cells)/IC50 (H1975 cells)]” value (from here on “Selective inhibitory activities”) in experiment [4] worked out at 15.7.

With `C=CC(=O)Nc1cc(Nc2nccc(-c3cnc4c(cnn4C)c3)n2)c(OC)cc1N(C)CCN(C)C` [Compound Z-6, N-(2-((2-(dimethylamino)ethyl)(methyl)amino)-4-methoxy-5-(4-(1-methyl-1H-pyrazolo[3,4-b]pyridin-5-yl)pyrimidin-2-ylamino)phenyl)acrylamide], the IC50 stood at 17 nM in experiment [5] (Homo sapiens, NCI-H1975); 194 nM in experiment [2] (Homo sapiens, A-431); 773 nM in experiment [6] (Homo sapiens, A-431, 72 h); 10 nM in experiment [3]; 34 nM in experiment [4] (Homo sapiens, NCI-H1975). Besides, the “selective inhibitory activity against the cell growth [IC50 (A431 cells)/IC50 (H1975 cells)]” value (from here on “selective inhibitory activity”) in experiment [5] was found to be 45.5. The “Selective inhibitory activities” value in experiment [4] is 5.7.

As for `C=CC(=O)Nc1cc(Nc2ncc(Cl)c(-c3cnn(C)c3)n2)c(OC)cc1N(C)CCN(C)C` [Compound Z-19, N-(5-((5-chloro-4-(1-methyl-1H-pyrazol-4-yl)pyrimidin-2-yl)amino)-2-((2-(dimethylamino)ethyl)(methyl)amino)-4-methoxyphenyl)acrylamide], the IC50 came to 4510 nM in experiment [1] (Mus musculus, NIH3T3); 22 nM in experiment [5] (Homo sapiens, NCI-H1975); 675 nM in experiment [2] (Homo sapiens, A-431); 757 nM in experiment [6] (Homo sapiens, A-431, 72 h); 21 nM in experiment [4] (Homo sapiens, NCI-H1975).

As to `C=CC(=O)Nc1cc(Nc2ncc(C(F)(F)F)c(-c3cnc4c(ccn4C)c3)n2)c(OC)cc1N(C)CCN(C)C` [Compound Z-22, N-(2-((2-(dimethylamino)ethyl)(methyl)amino)-4-methoxy-5-((4-(1-methyl-1H-pyrrolo[2,3-b]pyridin-5-yl)-5-(trifluoromethyl)pyrimidin-2-yl)amino)phenyl)acrylamide], the IC50 was found to be 29 nM in experiment [5] (Homo sapiens, NCI-H1975); 1230 nM in experiment [2] (Homo sapiens, A-431); 1900 nM in experiment [6] (Homo sapiens, A-431, 72 h); 57 nM in experiment [3]; 23 nM in experiment [4] (Homo sapiens, NCI-H1975). In addition, in experiment [5], the “selective inhibitory activity” value was 65.5. Further, the “Selective inhibitory activities” value in experiment [4] came to 53.6.

For `C=CC(=O)Nc1cc(Nc2nccc(-c3cnc4[nH]ccc4c3)n2)c(OC)cc1N(C)CCN(C)C` [Compound Z-30], the IC50 was found to be 5790 nM in experiment [1]; 25 nM in experiment [5]; 1110 nM in experiment [6] (MTT, 72 h). Besides, the “selective inhibitory activity” value in experiment [5] was 44.4.

Take `C=CC(=O)Nc1cc(Nc2ncc(F)c(-c3cnc4c(cnn4C)c3)n2)c(OC)cc1N(C)CCN(C)C` [Compound Z-41]: the IC50 in experiment [1] was greater than 10000 nM; in experiment [2], 954 nM; in experiment [3] it was 20 nM; in experiment [4], 31 nM. Further, the “Selective inhibitory activities” value in experiment [4] amounted to 30.8.

As for `C=CC(=O)Nc1cc(Nc2ncc(OC)c(-c3cnc4c(cnn4C)c3)n2)c(OC)cc1N(C)CCN(C)C` [Compound Z-44], the IC50 in experiment [1] came to 8880 nM; in experiment [5], 32 nM; in experiment [6] (MTT, 72 h), 1810 nM; in experiment [3], 30 nM. Moreover, the “selective inhibitory activity” value in experiment [5] turned out to be 56.7.

`C=CC(=O)Nc1cc(Nc2ncc(Cl)c(-c3cnn(C)c3C)n2)c(OC)cc1N(C)CCN(C)C` [Compound Z-55]: the IC50 in experiment [1] turned out to be 5420 nM; in experiment [2], 200 nM; in experiment [6] (MTT, 72 h) it was 660 nM; in experiment [3], 21 nM; in experiment [4], 15 nM.

Consider `C=CC(=O)Nc1cc(Nc2ncc(Cl)c(-c3ccn(C)c3)n2)c(OC)cc1N1CCC(N(C)C)CC1` [Compound Z-98, N-(5-(5-chloro-4-(1-methyl-1H-pyrrol-3-yl)pyrimidin-2-ylamino)-2-(4-(dimethylamino)piperidin-1-yl)-4-methoxyphenyl)acrylamide], for which the IC50 is 4360 nM in experiment [1] (Mus musculus, NIH3T3); 108 nM in experiment [5] (Homo sapiens, NCI-H1975); 1640 nM in experiment [6] (Homo sapiens, A-431, 72 h); 407 nM in experiment [3]. The “selective inhibitory activity” value in experiment [5] was 15.2.

In the case of `C=CC(=O)Nc1cc(Nc2ncc(Cl)c(-c3cn[nH]c3)n2)c(OC)cc1N1CCC(N(C)C)CC1` [Compound Z-102, N-(5-(5-chloro-4-(1H-pyrazol-4-yl)pyrimidin-2-ylamino)-2-(4-(dimethylamino)piperidin-1-yl)-4-methoxyphenyl)acrylamide], the IC50 in experiment [5] (Homo sapiens, NCI-H1975) is 15 nM; in experiment [2] (Homo sapiens, A-431), 1020 nM; in experiment [6] (Homo sapiens, A-431, 72 h) it was 597 nM; in experiment [4] (Homo sapiens, NCI-H1975) it was 11 nM.

On to `C=CC(=O)Nc1cc(Nc2nccc(-c3cnc4c(ccn4C)c3)n2)c(OC)cc1N(C)CCN(C)CC` [Compound Z-105], for which the IC50 in experiment [1] is 9360 nM; in experiment [2], 181 nM; in experiment [3], 7 nM; in experiment [4], 28 nM. Besides, the “Selective inhibitory activities” value in experiment [4] came out at 6.5.

Consider `C=CC(=O)Nc1cc(Nc2nccc(-c3cnc4c(ccn4C)c3)n2)c(OC)cc1N(C)CCNC` [Compound Z-106], for which the IC50 in experiment [5] was determined as 13 nM; in experiment [2], 193 nM; in experiment [6] (MTT, 72 h), 685 nM; in experiment [3], 4 nM; in experiment [4], 12 nM. For the same molecule, the “selective inhibitory activity” value in experiment [5] is listed as 52.7. Moreover, the “Selective inhibitory activities” value in experiment [4] is 16.1.

Consider `C=CC(=O)Nc1cc(Nc2nccc(-c3cnc4c(ccn4C)c3)n2)c(OC)cc1N(C)CCN(CC)CC` [Compound Z-107], for which the IC50 in experiment [5] turned out to be 37 nM; in experiment [2] it was 855 nM; in experiment [6] (MTT, 72 h) it was 1410 nM; in experiment [3], 16 nM; in experiment [4], 55 nM. In addition, in experiment [5], the “selective inhibitory activity” value worked out at 38.2. Moreover, the “Selective inhibitory activities” value in experiment [4] is on record as 15.5.

For the molecule `C=CC(=O)Nc1cc(Nc2nccc(-c3cnc4c(ccn4C)c3)n2)c(OC)cc1N(C)CCCN(C)C` [Compound Z-108], the IC50 in experiment [1] worked out at 3620 nM; in experiment [5], 77 nM; in experiment [6] (MTT, 72 h) it was 2900 nM. The “selective inhibitory activity” value in experiment [5] turned out to be 37.7.

Take `C=CC(=O)Nc1cc(Nc2ncc(Cl)c(-c3cnc4c(ccn4C)c3)n2)c(OC)cc1N(C)CCN(C)CC` [Compound Z-109]: the IC50 is 6000 nM in experiment [1], 434 nM in experiment [2], 28 nM in experiment [3] and 85 nM in experiment [4]. Further, in experiment [4], the “Selective inhibitory activities” value worked out at 5.1.

Take `C=CC(=O)Nc1cc(Nc2nccc(-c3cnc4c(ccn4C)c3)n2)c(OC)cc1N(C)CCN1CCCC1` [Compound Z-112]: the IC50 was greater than 10000 nM in experiment [1], 486 nM in experiment [2], 22 nM in experiment [3] and 77 nM in experiment [4]. The “Selective inhibitory activities” value in experiment [4] is 6.3.

For the molecule `C=CC(=O)Nc1cc(Nc2ncc(Cl)c(-c3cnc4c(ccn4C)c3)n2)c(OC)cc1N1CC(N(C)C)C1` [Compound Z-113], the IC50 in experiment [1] was 5320 nM; in experiment [2], 2250 nM; in experiment [3], 121 nM; in experiment [4] it was 99 nM. For the same molecule, the “Selective inhibitory activities” value in experiment [4] is 22.8.

In the case of `C=CC(=O)Nc1cc(Nc2ncc(F)c(-c3cnc4c(c3)c(Cl)cn4C)n2)c(OC)cc1N(C)CCN(C)C` [Compound Z-123], the IC50 was determined as 4740 nM in experiment [1]; 26 nM in experiment [5]; 1040 nM in experiment [6] (MTT, 72 h); 3 nM in experiment [3]. Also, the “selective inhibitory activity” value in experiment [5] worked out at 40.2.

Regarding `C=CC(=O)Nc1cc(Nc2nccc(-c3cnc4c(ccn4C(C)C)c3)n2)c(OC)cc1N(C)CCN(C)C` [Compound Z-124], the IC50 in experiment [1] turned out to be 3240 nM; in experiment [5] it was 38 nM; in experiment [6] (MTT, 72 h) it was 1780 nM; in experiment [3], 13 nM. The “selective inhibitory activity” value in experiment [5] was 46.8.

Take `C=CC(=O)Nc1cc(Nc2nccc(-c3cccnc3)n2)c(OC)cc1N1CCC(N(C)C)CC1` [compound 2, reference compound]: the IC50 in experiment [5] (Homo sapiens, NCI-H1975) turned out to be 277 nM; in experiment [2] (Homo sapiens, A-431), 199 nM; in experiment [6] (Homo sapiens, A-431, 72 h) it was 6660 nM; in experiment [4] (Homo sapiens, NCI-H1975) it was 241 nM. Also, in experiment [5], the “selective inhibitory activity” value turned out to be 24. The “Selective inhibitory activities” value in experiment [4] is recorded as 0.83.

With `C=CC(=O)Nc1cc(Nc2ncc(OC)c(-c3cnc4ccccc4c3)n2)c(OC)cc1N1CCC(N(C)C)CC1` [compound 3, reference compound], the IC50 came out at 437 nM in experiment [5] (Homo sapiens, NCI-H1975); 3110 nM in experiment [2] (Homo sapiens, A-431); 2970 nM in experiment [6] (Homo sapiens, A-431, 72 h); 1140 nM in experiment [4] (Homo sapiens, NCI-H1975). For the same molecule, the “selective inhibitory activity” value in experiment [5] is listed as 6.8. The “Selective inhibitory activities” value in experiment [4] was 2.7.
